Test results: patent US20040049807A1, “Fatty acid desaturase gene and protein for modulating activation of defense signaling pathways in plants” (priority 2003, published 2004)

Assays:
[1] = system: PR-1, BGL2 and PR-5 gene transcripts; experiment: PR gene expression after chemical treatment of plants (northern blot); type: in vivo, Arabidopsis
Description: Chemical treatment of plants. Four-week-old plants were sprayed and sub-irrigated with a solution of SA […] or BTH […] in water as previously described (Shah et al. 1997). As controls, plants were similarly treated with water. Leaves were harvested at the indicated times after treatment and quick-frozen in liquid nitrogen. Leaf samples were stored at −80° C.
RNA extraction, northern and dot blot analyses. Large-scale preparation of RNA from Arabidopsis was carried out Small-scale extraction of RNA from one or two leaves was performed in the TRIzol reagent (GIBCO-BRL, Gaithersburg, Md.) following manufacturer's instructions. Northern blot analysis and synthesis of random primed probes for PR-i, BGL2 and PR-5 were synthesized as described earlier (Shah et al. 1997).

PDF1.2 = PDF1.2 gene expression (northern blot); type: in vivo, Arabidopsis
Description: FIG. 8. Expression of the SSI2 gene. (FIG. 8A) Histochemical staining of GUS activity in the leaves and inflorescence of transgenic plants expressing an SSI2::: GUS reporter gene. […] The control is a stained leaf from a wt plant. (FIG. 8B) Northern blot analysis of SSI2 (Nö), npr1-5, jar1-1 and ssi2 plants treated with water or 50 μM JA. RNA was extracted at 48 hour (h) post treatment and the blot was sequentially probed with SSI2, PDF1.2, and THI2.1. Ethidium bromide-stained rRNA served as a control for gel loading. (FIG. 8C) Northern blot analysis of plants inoculated with spores of Alternaria brassicicola. Mock (M) or fungal (A) inoculations were carried out as described previously (12). RNA was extracted at 72 h post inoculation and PDF1.2 gene expression was monitored. (FIG. 8D) Northern blot analysis of SSI2, npr1-5, jar1-1, NahG, etr1-1 and ssi2 plants treated with methanol or 50 μM MeJA. The plants were placed around a beaker containing methanol or MeJA diluted in methanol and covered with plastic wrap. RNA was prepared from leaves harvested at 48 h post treatment and analyzed for PDF1.2 gene expression.
FIG. 10. […] Oleic acid (18:1; 0.5 mM, Sigma) or water was injected into the leaves of SSI2 (Nö), ssi2 or ssi2 nahG plants followed by treatment with 50 μM JA or water. Eight to ten individual plants each of SSI2, ssi2 or ssi2 nahG were analyzed in two independent experiments. RNA was extracted at 48 h post treatment and PDF1.2 gene expression was monitored by northern blot analysis. Ethidium bromide-stained rRNA served as a control for gel loading.
RNA extraction and northern analyses. Small-scale extraction of RNA from one or two leaves was performed in the TRIzol reagent (GIBCO-BRL, Gaithersburg, Md.) following the manufacturer's instructions. Northern blot analysis and synthesis of random primed probes for PR-1, BGL2 and PR-5, PDF1.2 and THI2.1 were synthesized.

B. cinerea = experiment: disease resistance to B. cinerea; type: in vivo, Arabidopsis; conditions: exogenously applied, ssi2 or ssi2 nahG plants
Description: FIG. 9. Analysis of disease resistance to B. cinerea. Infections with B. cinerea were carried out by wounding the leaves by needle pricks and subsequently spot inoculating spores at the wounded site. The number of pricks made per leaf were based on the leaf size and ranged from three per leaf for SSI2 (Nö) to one per leaf for the ssi2 mutant. Plants were treated with either water or 50 μM JA for 48 h prior to and throughout the infection and the inoculated leaves were photographed at 10 dpi.

root growth = experiment: inhibition of root growth; type: in vivo, Arabidopsis; conditions: ssi2 plants
SSI2 gene expression = SSI2 gene expression after treatment (northern analysis); type: in vivo, Arabidopsis; conditions: 12, 24 or 48 hours after treating plants
THI2.1 = THI2.1 gene expression (northern blot); type: in vivo, Arabidopsis; conditions: ssi2 plants
Description: FIG. 8. Expression of the SSI2 gene. (FIG. 8A) Histochemical staining of GUS activity in the leaves and inflorescence of transgenic plants expressing an SSI2::: GUS reporter gene. A 1631 bp fragment containing the SSI2 promoter was transcriptionally fused upstream of GUS in pBI121 and three independent transgenic lines were analyzed in both T1 and T2 generations. The control is a stained leaf from a wt plant. (FIG. 8B) Northern blot analysis of SSI2 (Nö), npr1-5, jar1-1 and ssi2 plants treated with water or 50 μM JA. RNA was extracted at 48 hour (h) post treatment and the blot was sequentially probed with SSI2, PDF1.2, and THI2.1. Ethidium bromide-stained rRNA served as a control for gel loading. (FIG. 8C) Northern blot analysis of plants inoculated with spores of Alternaria brassicicola. Mock (M) or fungal (A) inoculations were carried out as described previously (12). RNA was extracted at 72 h post inoculation and PDF1.2 gene expression was monitored. (FIG. 8D) Northern blot analysis of SSI2, npr1-5, jar1-1, NahG, etr1-1 and ssi2 plants treated with methanol or 50 μM MeJA. The plants were placed around a beaker containing methanol or MeJA diluted in methanol and covered with plastic wrap. RNA was prepared from leaves harvested at 48 h post treatment and analyzed for PDF1.2 gene expression.
RNA extraction and northern analyses. […]

[2] = in vitro S-ACP desaturase assay

Q: Which PR-1 gene expression ([1]; exogenous application, wt plants) does the source give for `CCCCCCCCCCCCCCCCCC(=O)O` [18:0, stearic acid] here?
A: Its PR-1 gene expression is “does not induce”.

Q: Which “accumulation of PR-1 transcript” value ([1]; ssi2 NPR1 nahG plants) does the source give for `c1ccc2snnc2c1` [BTH, benzothiadiazole] here?
A: Its value is “increased”.

Q: What about the PR-1 expression ([1]; ssi2 npr1-5 nahG plants) of the same molecule?
A: Its PR-1 expression is “not”.

Q: With `CC/C=C\C[C@H]1C(=O)CC[C@@H]1CC(=O)O` [JA, jasmonic acid] as the molecule, how does the PDF1.2 expression (PDF1.2; ssi2 NPR1, ssi2 npr1-5 or jar1-1 plants, 50 μM, 48 h) read?
A: Its PDF1.2 expression is “induced only low to undetectable levels”.

Q: And the PDF1.2 expression (PDF1.2; wt and npr1-5 plants, 50 μM, 48 h)?
A: Its PDF1.2 expression is “activated PDF1.2 expression effectively”.

Q: And the B. cinerea resistance (B. cinerea)?
A: Its B. cinerea resistance is “failed to restore”.

Q: And the “inhibition of root growth” value (root growth)?
A: Its value is “unaffected”.

Q: And the SSI2 gene expression (SSI2 gene expression)?
A: Its SSI2 gene expression is “did not increase substantially over basal levels”.

Q: What about the “induced activation of the THI2.1 gene” value (THI2.1) of the same molecule?
A: The value was “unaffected”.

Q: What does the source list for `CC/C=C\CC1C(=O)CCC1CC(=O)OC` (stereo not drawn) [MeJA, methyl JA]?
A: B. cinerea resistance (B. cinerea): failed to restore; inhibition of root growth (root growth): unaffected

Q: Which results are given for `O=C(O)c1ccccc1O` [SA, salicylic acid]?
A: accumulation of the PR gene transcripts ([1]; exogenous application, ssi2 npr1-5 plant): did not further increase; SSI2 gene expression (SSI2 gene expression): did not increase substantially over basal levels

Q: What does the source list for `C=C` [ethylene]?
A: PDF1.2 expression (PDF1.2; 10 or 20 parts per million, ssi2 plants): not; PDF1.2 expression (PDF1.2; 10 or 20 parts per million, wt plants): induced PDF1.2 expression; SSI2 gene expression (SSI2 gene expression): did not increase substantially over basal levels

Q: Which results are given for “mutant protein: ssi2 mutant S-ACP desaturase with leucine 146 changed to phenylalanine, bacterial-expressed (LRERARELPDDYFVVLVGDMITEEAFPTYQTMLNTLDGVRDETGASPTSWAIWTRAWTAE; (26)..(26) Phe residue instead of Leu present at position corresponding to residue 146 of wild type.; listed as Arabidopsis thaliana)”?
A: fold less active than wt ([2]; 16:0 substrate): ~20 fold; fold less active than wt ([2]; 18:0 substrate): approximately 10 fold; 18:16 substrate preference ratio and Δ^9 regiospecificity ([2]; in contrast to the wt): unaltered; activity lower than that of the wt enzyme ([2]; overall summary): 10-20 fold

B1: Wt SSI2: wild-type Arabidopsis SSI2 stearoyl-ACP desaturase (SEQ ID NO:3), expressed in Escherichia coli and purified (protein, listed as Arabidopsis thaliana)
chain: MALKFNPLVASQPYKFPSSTRPPTPSFRSPKFLCLASSSPALSSGPKEVESLKKPFTPPREVHVQVLHSMPPQKIEIFKSMENWAEENLLIHLKDVEKSWQPQDFLPDPASDGFEDQVRELRERARELPDDYFVVLVGDMITEEALPTYQTMLNTLDGVRDETGASPTSWAIWTRAWTAEENRHGDLLNKYLYLSGRVDMRQIEKTIQYLIGSGMDPRTENNPYLGFIYTSFQERATFISHGNTARQAKEHGDIKLAQICGTIAADEKRHETAYTKIVEKLFEIDPDGTVMAFADMMRKKISMPAHLMYDGRNDNLFDNFSSVAQRLGVYTAKDYADILEFLVGRWKIQDLTGLSGEGNKAQDYLCGLAPRIKRLDERAQARAKKGPKIPFSWIHDREVQL
Q: Which specific activity ([2]; purified enzyme expressed in Escherichia coli) does the source give for B1 here?
A: Its specific activity is about 800 nm/min/mg.
